This experiment concerns the target CCHF virus vOTU protease domain (L polyprotein). Put plainly: Crimean Congo hemorrhagic fever virus vOTU protease, Pep AMC substrate, counterscreen, confirmatory (AID 720577). Particulars: purified vOTU, fluorescence. In general terms: Counterscreens check selectivity or assay interference.

Several values for one entry are separate records, joined by “and”; a condition that tells them apart may be missing. Identical values can stand only once. Activity calls are given as the source filed them. No rule for the calls is given here.

Consider 68 molecules from PubChem BioAssay AID720577 (The Scripps Research Institute Molecular Screening Center, 2013).

For orientation: IC50 means the concentration needed to halve the response being measured.

As to `O=C(O)c1ccc(NC2=C/C(=N/S(=O)(=O)c3cccs3)c3ccccc3C2=O)cc1`, the IC50 was 1.4 µM. Next, `CCn1nc(/C=C/c2ccccc2)nc2c(=O)n(C)c(=O)nc1-2`: 0.487 µM; `CC(=O)N(/N=C1\Sc2ccccc2C1=O)c1cccc(C)c1`: “inactive”; `O=C1C(N2CCOCC2)=C(n2nnc3ccccc32)C(=O)c2ccccc21`: 6.3 µM. In the case of `COc1ccccc1NC(=O)COC(=O)c1ccc([N+](=O)[O-])s1` it was “inactive”; in that of `O=C(COC(=O)c1ccc([N+](=O)[O-])s1)Nc1ncc(C(F)(F)F)cc1Cl`, “inactive”. On to `O=S(=O)(Nc1c(S(=O)(=O)c2ccccc2)c2nc3ccccc3nc2n1C1CCCCC1)c1ccccc1`, for which the IC50 was > 115 µM (inactive).

On to `O=C1C(=O)c2cccnc2-c2ncccc21`, for which the IC50 entry is “inactive”. On to `CCCCCCCCN1C(=O)[C@@H](CC(=O)NCCCOCCCC)C[C@@]2(C(=O)OC)C1=C[C@H](C(C)C)O[C@@H]2C1CC1`, for which the IC50 entry is “inactive”. Next, `Cc1cc(=O)c2c(o1)C(=O)c1occc1C2=O`: “inactive”.

With `CN(C)c1ncc(C2=C(Cl)C(=O)C(N3CCCC3)=C(Cl)C2=O)s1`, the IC50 entry was “inactive”. As to `NC1=C(Br)C(=O)c2ccccc2C1=O`, the IC50 is 6.65 µM.

As for `Clc1ccc(C2=CSC3=Nc4cccc5cccc(c45)N23)cc1`, the IC50 result is “inactive”. Next, `NC1=C(Cl)C(=O)c2ccc(S(N)(=O)=O)cc2C1=O`: 0.387 µM. As to `C[n+]1cccc2cccc([O-])c21`, the IC50 result was “inactive”. In the case of `O=C(O)CSc1cc(NS(=O)(=O)c2ccc(Cl)cc2)c2ccccc2c1O`, the IC50 entry is “inactive”. Regarding `O=C(NC1=CC(=O)c2ccccc2C1=O)c1ccccc1`, the IC50 result was “inactive”. In the case of `COc1ccccc1N=Nc1c(O)[nH]c(=S)[nH]c1=O`, the IC50 result was “inactive”. In the case of `O=c1[nH]c(=S)[nH]c2c1C(c1ccc(Br)cc1)c1c([nH]c(=S)[nH]c1=O)O2` it was “inactive”; in that of `Cc1ccc(NC2=CC(=O)C(=O)c3ccccc32)cc1`, “inactive”; in that of `CC(C)C[C@H](NC(=O)c1[nH]cnc1C(=O)N[C@@H](C)C(=O)OC(C)(C)C)C(=O)OC(C)(C)C`, “inactive”. For the molecule `COC1=C(N)C(=O)c2nc(C)ccc2C1=O`, the half-maximal inhibitory concentration (IC50) is 4.98 µM.

In the case of `CC1COCC(C)N1C1=C(Cl)C(=O)c2ccccc2C1=O` (stereo not drawn), the IC50 entry was “inactive”.

With `Cn1c(=O)c2c(-c3ccccc3)n(-c3ccc(N)cc3)cc2n(C)c1=O`, the IC50 result was “inactive”. On to `C[n+]1c2ccccc2nc2ccc(NCCO)cc21`, for which the IC50 entry is “inactive”. Next, `O=C1C(=O)c2ccccc2-c2ccccc21`: 3.75 µM; `O=C(NC1=C(NC2CCS(=O)(=O)C2)C(=O)c2ccccc2C1=O)c1ccccc1` (stereo not drawn): “inactive”; `CC(C)N(C(=O)Nc1ccc2nsnc2c1)C(C)C`: > 115 µM (inactive).

Turning to `Cc1cnc(C2OCCO2)c2cccc(N)c12`, the IC50 was 5.37 µM. In the case of `COc1cc(CCNC2=CC(=O)c3ncccc3C2=O)ccc1O` it was “inactive”; in that of `O=C(NC(=S)Nc1ccccc1N1CCCC1)c1cccs1`, > 115 µM (inactive); in that of `O=S(=O)(Nc1cc2nc3ccccc3nc2n1Cc1ccccc1)c1ccc(Cl)cc1`, 7.6 µM. In the case of `Cc1ccc(N2C(=O)[C@@H]3[C@H](C2=O)C2c4ccccc4C=CN2[C@@H]3C(=O)c2ccco2)cc1` (stereo partly drawn) it was 5.2 µM. On to `Nc1ccc(N2CCCCC2)c2nonc12`, for which the IC50 result is “inactive”. In the case of `CCc1cc[n+](C2=C([O-])c3ccccc3C(=O)/C2=N\S(=O)(=O)c2cccs2)cc1` it was “inactive”; in that of `COc1cc(C(=O)c2nccc3cc(OC)c(OC)cc23)c([N+](=O)[O-])cc1OC`, 4.04 µM; in that of `CC(=O)NC1=C(N(C)C2CCS(=O)(=O)C2)C(=O)c2ccccc2C1=O` (stereo not drawn), “inactive”. `COc1cc(C=c2c3ccccc3n3c2cc(-c2ccccc2)[n+]3C)cc(OC)c1OC`: the IC50 was 5.77 µM. Next, `CCc1ccc(S(=O)(=O)Nc2cc(SCC(=O)O)c(O)c3ccccc23)cc1`: “inactive”; `CCCCCCCCCCCCCCCC[n+]1cccc2ccccc21`: 4.2 µM. `CC(=O)c1ccc(NC(=S)Nc2cccc3cnccc23)cc1`: the half-inhibitory concentration (IC50) is 7.69 µM. Next, `CC(=O)N(C1=C(Cl)C(=O)c2ccccc2C1=O)c1ccc(C(=O)O)cc1`: 4.77 µM; `Cc1ccccc1NC1=C/C(=N\S(=O)(=O)c2cccs2)c2ccccc2C1=O`: 1.04 µM; `CCCCCCCCCCCCCCCC[n+]1ccccc1`: 7.79 µM and 8.46 µM and 6.99 µM. For the molecule `CC1=C(SCc2ccccc2)C(=O)c2ccccc2C1=O`, the IC50 was 9.91 µM.

On to `Cc1ccc(Cl)cc1NC1=C/C(=N\S(=O)(=O)c2cccs2)c2ccccc2C1=O`, for which the half-inhibitory concentration (IC50) is 2.37 µM. Next, `COc1ccc(/C=N/NC(=O)c2nn(-c3ccccc3)c(=O)c3c(N)scc23)cc1`: “inactive”.

In the case of `Cc1c(Cl)cnc(NC(=O)COC(=O)c2ccc([N+](=O)[O-])s2)c1Cl`, the IC50 entry is “inactive”.

Regarding `O=C(NC(=S)Nc1ccccc1N1CCCC1)c1ccc(F)cc1`, the IC50 was > 115 µM (inactive). For the molecule `C[n+]1c(-c2ccccc2)cc2c(=Cc3ccccc3)c3ccccc3n21`, the IC50 is 3.65 µM. As for `Cc1cc(NC2=CC(=O)C(=O)c3ccccc32)no1`, the IC50 result was “inactive”. In the case of `O=C(c1ccco1)[C@@H]1[C@@H]2C(=O)N(c3ccc(Br)cc3)C(=O)[C@@H]2C2c3ccccc3C=CN21` (stereo partly drawn) it was “inactive”; in that of `CC(=O)N(C)c1ccc(N=Cc2cc3c(cc2[N+](=O)[O-])OCO3)cc1`, “inactive”; in that of `CC(C)(C)c1cc[n+](C2=C([O-])c3ccccc3C(=O)/C2=N\S(=O)(=O)c2cccs2)cc1`, “inactive”. Consider `C=CCN1C=CC(=C/C=C(/C#N)C(=O)OCC)C=C1`, for which the IC50 entry is “inactive”.

For `O=S(=O)(N=C1C=CC(=NS(=O)(=O)c2ccccc2)c2ccccc21)c1ccccc1`, the IC50 result is “inactive”.

In the case of `Oc1ccccc1CNc1cccc2cccnc12`, the IC50 result is “inactive”. Next, `C[n+]1c(-c2ccccc2)c2cc(N)ccc2c2ccc(N)cc21`: “inactive”. Consider `COC1=CC(=O)c2c(ccc3ncnc(N)c23)C1=O`, for which the half-inhibitory concentration (IC50) was 0.853 µM. With `CCOC(=O)c1cc2c(=Cc3ccc(N(C)C)cc3)c3ccccc3n2[n+]1C`, the concentration for half-maximal inhibition (IC50) is 5.69 µM. For `CN(C)c1cccc2c1c(NS(=O)(=O)c1cn(C)cn1)nn2C`, the IC50 entry is “inactive”.

Turning to `NS(=O)(=O)c1ccc(NC2=CC(=O)C(=O)c3ccccc32)cc1`, the IC50 entry was “inactive”. Next, `COC(CNC(=O)c1ccc2c3c(onc13)-c1ccccc1C2=O)OC`: “inactive”; `O=C1C=C(NCc2ccccc2)c2ccccc2C1=O`: “inactive”; `O=C(COC(=O)c1ccc([N+](=O)[O-])s1)NCc1ccc(F)cc1`: “inactive”. For the molecule `O=[N+]([O-])c1ccccc1-c1ccc(C(=S)N2CCCC2)o1`, the IC50 entry is “inactive”. In the case of `CCCCCCCCCCCCCCCCn1cc[n+](C)c1` it was 7.06 µM; in that of `O=C1Cc2ccccc2C(=O)N1`, 0.597 µM.
